Test [1] has as its system G55T2. Nature of the test: Antiproliferative activity against human G55T2 cells assessed as reduction in cell viability incubated for 72 hrs by WST-8 assay. The test is classed as functional, cell-based. The conditions noted are these: G55T2, 72 h. Background: Formazan colour is commonly taken as a measure of viable cells.
In the next test the test system is NB1. The test can be described thus: Antiproliferative activity against human NB-1 cells assessed as reduction in cell viability incubated for 72 hrs by cell-titer Glo assay. The test is classed as functional, cell-based. The conditions noted are these: NB1, 72 h.
The subject of a further test is SK-N-AS. The test can be described thus: Antiproliferative activity against human SK-N-AS cells assessed as reduction in cell viability incubated for 72 hrs by cell-titer Glo assay. The test is classed as functional, cell-based.
The next test has as its system CHP-134. Nature of the test: Antiproliferative activity against human CHP134 cells assessed as reduction in cell viability incubated for 72 hrs by cell-titer Glo assay. The format is functional, cell-based. The conditions noted are these: CHP-134, 72 h.
In test [2] the target is T1, Protein deacetylase HDAC6 (Homo sapiens, UniProt Q9UBN7).
T1 sequence (Q9UBN7 whole entry): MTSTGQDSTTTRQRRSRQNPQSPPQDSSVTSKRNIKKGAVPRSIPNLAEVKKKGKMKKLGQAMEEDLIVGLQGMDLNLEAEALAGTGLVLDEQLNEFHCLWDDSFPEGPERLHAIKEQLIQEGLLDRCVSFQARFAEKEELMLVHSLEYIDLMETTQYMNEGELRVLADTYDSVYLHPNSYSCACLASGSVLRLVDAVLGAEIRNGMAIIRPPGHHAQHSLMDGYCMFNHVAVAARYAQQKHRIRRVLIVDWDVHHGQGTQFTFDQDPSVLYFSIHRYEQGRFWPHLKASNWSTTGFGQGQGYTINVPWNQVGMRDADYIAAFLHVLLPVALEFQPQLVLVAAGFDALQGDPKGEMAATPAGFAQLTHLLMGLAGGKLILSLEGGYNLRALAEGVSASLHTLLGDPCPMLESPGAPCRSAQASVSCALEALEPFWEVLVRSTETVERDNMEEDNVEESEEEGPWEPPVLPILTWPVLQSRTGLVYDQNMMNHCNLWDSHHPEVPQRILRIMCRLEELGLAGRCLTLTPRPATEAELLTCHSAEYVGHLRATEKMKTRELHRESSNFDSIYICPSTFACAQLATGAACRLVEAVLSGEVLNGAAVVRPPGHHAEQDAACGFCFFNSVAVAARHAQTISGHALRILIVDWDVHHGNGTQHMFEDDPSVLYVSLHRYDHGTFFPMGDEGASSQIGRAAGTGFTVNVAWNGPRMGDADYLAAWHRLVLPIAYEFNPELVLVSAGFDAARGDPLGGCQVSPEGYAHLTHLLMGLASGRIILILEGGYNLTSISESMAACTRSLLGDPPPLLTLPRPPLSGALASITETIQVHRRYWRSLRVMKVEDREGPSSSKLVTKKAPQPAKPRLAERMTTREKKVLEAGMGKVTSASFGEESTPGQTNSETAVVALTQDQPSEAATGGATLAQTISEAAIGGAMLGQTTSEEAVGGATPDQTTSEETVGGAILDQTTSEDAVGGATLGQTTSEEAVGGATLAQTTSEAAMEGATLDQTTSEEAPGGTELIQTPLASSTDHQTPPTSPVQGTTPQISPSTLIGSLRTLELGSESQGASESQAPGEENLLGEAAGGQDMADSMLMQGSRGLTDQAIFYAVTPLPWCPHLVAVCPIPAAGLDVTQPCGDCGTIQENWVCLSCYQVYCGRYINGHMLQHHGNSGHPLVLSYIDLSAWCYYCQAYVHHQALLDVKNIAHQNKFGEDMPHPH
Nature of the test: Inhibition of recombinant full length N-terminal GST-tagged human HDAC6 expressed in baculovirus infected Sf9 cells using Z-Lys(Ac)-AMC as substrate incubated for 90 mins followed by trypsin addition and measured after 30 mins by fluorescence based assay.

Another test concerns IMR-32. Nature of the test: Antiproliferative activity against human IMR32 cells assessed as reduction in cell viability incubated for 72 hrs by cell-titer Glo assay. The format is functional, cell-based. The note with it: IMR-32, 72 h.
The target in a further test is Histone deacetylase 1 (Homo sapiens, UniProt Q13547). The test can be described thus: Inhibition of recombinant full length C-terminal FLAG/His-tagged human HDAC1 expressed in baculovirus infected Sf9 cells using Z-Lys(Ac)-AMC as substrate incubated for 90 mins followed by trypsin addition and measured after 30 mins by fluorescence based assay.
Histone deacetylase 1, sequence (Q13547 whole entry): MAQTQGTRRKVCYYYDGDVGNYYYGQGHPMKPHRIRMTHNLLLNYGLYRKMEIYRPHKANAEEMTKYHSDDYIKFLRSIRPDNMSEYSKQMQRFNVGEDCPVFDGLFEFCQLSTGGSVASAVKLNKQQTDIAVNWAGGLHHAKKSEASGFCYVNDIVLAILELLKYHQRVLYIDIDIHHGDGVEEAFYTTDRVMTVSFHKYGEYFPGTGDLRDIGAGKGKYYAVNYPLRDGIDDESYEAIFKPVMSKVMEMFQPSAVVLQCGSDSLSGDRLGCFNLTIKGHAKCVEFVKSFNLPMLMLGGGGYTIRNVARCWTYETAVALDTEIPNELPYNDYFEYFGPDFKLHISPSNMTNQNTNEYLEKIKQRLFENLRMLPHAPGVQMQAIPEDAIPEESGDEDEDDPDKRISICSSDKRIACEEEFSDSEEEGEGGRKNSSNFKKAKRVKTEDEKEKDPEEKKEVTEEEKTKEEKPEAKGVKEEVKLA
The subject of test [3] is G55T2. The test can be described thus: Cell cycle arrest in human G55T2 cells assessed as accumulation in G2/M phase at 1 uM incubated for 72 hrs by propidium iodide based flow cytometry (reference value: 26.8 %). The format is functional. In general terms: Flow cytometry measures light scatter and fluorescence of single cells or particles in a stream.
The test system of test [4] is G55T2. Nature of the test: Cell cycle arrest in human G55T2 cells assessed as accumulation in subG0 phase at 1 uM incubated for 72 hrs by propidium iodide based flow cytometry (reference value: 4.5 %). The test is classed as functional.
For test [5], the system named is G55T2. The test can be described thus: Cell cycle arrest in human G55T2 cells assessed as accumulation in S phase at 3 uM incubated for 72 hrs by propidium iodide based flow cytometry (reference value: 14.7 %). The test is classed as functional.
In test [6] the test system is G55T2. The test can be described thus: Cell cycle arrest in human G55T2 cells assessed as accumulation in G0/G1 phase at 1 uM incubated for 72 hrs by propidium iodide based flow cytometry (reference value: 49.9 %). The format is functional.
Test [7] deals with G55T2. The test can be described thus: Cell cycle arrest in human G55T2 cells assessed as accumulation in G0/G1 phase at 3 uM incubated for 72 hrs by propidium iodide based flow cytometry (reference value: 49.9 %). The test is classed as functional.
Test [8] relates to G55T2. Nature of the test: Cell cycle arrest in human G55T2 cells assessed as accumulation in G2/M phase at 3 uM incubated for 72 hrs by propidium iodide based flow cytometry (reference value: 26.8 %). The format is functional.
For test [9], the system named is G55T2. The test can be described thus: Cell cycle arrest in human G55T2 cells assessed as accumulation in subG0 phase at 3 uM incubated for 72 hrs by propidium iodide based flow cytometry (reference value: 4.5 %). The test is classed as functional.
For test [10], the system named is G55T2. The test can be described thus: Cell cycle arrest in human G55T2 cells assessed as accumulation in S phase at 1 uM incubated for 72 hrs by propidium iodide based flow cytometry (reference value: 14.7 %). The format is functional.

13 compounds from ChEMBL document CHEMBL4334421, “Design, synthesis and biological evaluation of β-peptoid-capped HDAC inhibitors with anti-neuroblastoma and anti-glioblastoma activity” (Medchemcomm, 2019) can be followed below.

The term IC50 denotes the midpoint of a concentration-inhibition curve.

For `COc1cc(OC)cc(C(=O)N(CCC(=O)NCc2ccccc2)Cc2ccc(C(=O)NO)cc2)c1`, the IC50 in the test on G55T2 [1] was 14.7 µM; with NB1, 13.3 µM; in the test on SK-N-AS, 9.47 µM; with CHP-134, 12.3 µM; in test [2], 0.026 µM; in the test on IMR-32, 6.04 µM. Also, the IC50 at Histone deacetylase 1 is 0.147 µM.

`Cc1ccc(NC(=O)CCN(Cc2ccc(C(=O)NO)cc2)C(=O)c2ccccc2)cc1`: the IC50 amounted to 0.54 µM in the test with G55T2 [1]; 1.48 µM in the test with NB1; 0.62 µM with SK-N-AS; 1.16 µM in the test with CHP-134; 0.0107 µM in test [2]; 0.55 µM with IMR-32. For the same compound, the IC50 on Histone deacetylase 1 amounted to 0.0275 µM.

Consider `Cc1ccc(CNC(=O)CCN(Cc2ccc(C(=O)NO)cc2)C(=O)c2ccc(N(C)C)cc2)cc1`, for which the IC50 in the test on G55T2 [1] was 0.43 µM; in the test with NB1, 0.7 µM; with SK-N-AS it was 0.34 µM; in the test with CHP-134, 0.42 µM; in test [2], 0.0144 µM; with IMR-32 it was 0.26 µM. In addition, the IC50 on Histone deacetylase 1 was 0.0278 µM.

With `O=C(NO)c1ccc(CC(=O)N(CCO)c2ccccc2)cc1`, the IC50 at Histone deacetylase 1 turned out to be 2.1 µM.

On to `COc1ccc(C(=O)N(CCC(=O)NCc2ccccc2)Cc2ccc(C(=O)NO)cc2)cc1`, for which the IC50 with G55T2 [1] was 3.49 µM; in the test with NB1, 2.52 µM; with SK-N-AS, 1.74 µM; in the test on CHP-134 it was 1.9 µM; in [2], 0.0253 µM; in the test with IMR-32 it was 1.09 µM. At Histone deacetylase 1, the IC50 was 0.0419 µM.

Take `Cc1ccc(NC(=O)CCN(Cc2ccc(C(=O)NO)cc2)C(=O)c2ccc(N(C)C)cc2)cc1`: the IC50 is 0.33 µM in the test on G55T2 [1]; 0.66 µM in the test with NB1; 0.4 µM with SK-N-AS; 0.54 µM in the test on CHP-134; 0.0195 µM in [2]; 0.3 µM in the test with IMR-32. Further, the IC50 on Histone deacetylase 1 turned out to be 0.0129 µM.

For the compound `CN(C)c1ccc(C(=O)N(CCC(=O)NCc2ccccc2)Cc2ccc(C(=O)NO)cc2)cc1`, the IC50 in the test with G55T2 [1] was determined as 1.15 µM; in the test with NB1, 1.72 µM; in the test on SK-N-AS, 1.42 µM; in the test with CHP-134 it was 1.16 µM; in test [2], 0.0148 µM; in the test on IMR-32 it was 0.84 µM. Also, the IC50 at Histone deacetylase 1 was 0.0147 µM.

On to `O=C(CCN(Cc1ccc(C(=O)NO)cc1)C(=O)c1ccccc1)NCc1ccccc1`, for which the IC50 in the test on G55T2 [1] is 5.94 µM; in the test with NB1, 6.66 µM; in the test on SK-N-AS, 3.31 µM; in the test with CHP-134 it was 4.68 µM; in test [2], 0.0125 µM; in the test with IMR-32, 2.36 µM. Besides, at Histone deacetylase 1, the IC50 came out at 0.134 µM.

On to `Cc1cc(C)cc(C(=O)N(CCC(=O)NCc2ccccc2)Cc2ccc(C(=O)NO)cc2)c1`, for which the IC50 turned out to be 4.25 µM with G55T2 [1]; 3.87 µM with NB1; 1.86 µM with SK-N-AS; 2.03 µM in the test on CHP-134; 0.0205 µM in test [2]; 1.39 µM in the test on IMR-32. Further, the IC50 at Histone deacetylase 1 turned out to be 0.128 µM.

With `CN(C)c1ccc(C(=O)N(CCC(=O)NCc2ccc(Cl)cc2)Cc2ccc(C(=O)NO)cc2)cc1`, the IC50 is 0.46 µM with G55T2 [1]; 0.85 µM in the test with NB1; 0.39 µM in the test with SK-N-AS; 0.61 µM in the test with CHP-134; 0.01 µM in test [2]; 0.31 µM in the test with IMR-32. The IC50 on Histone deacetylase 1 worked out at 0.0212 µM.

With `Cc1ccc(NC(=O)CCN(Cc2ccc(C(=O)NO)cc2)C(=O)c2cc(C)cc(C)c2)cc1`, the Activity is given as 29.1% in the test on G55T2 [3]; 3.5% in the test with G55T2 [4]; 9.8% with G55T2 [5]; 52.3% in the test with G55T2 [6]; 30.2% in the test with G55T2 [7]; 31.1% in the test with G55T2 [8]. The values for the Activity in the test on G55T2 [9] and in the test with G55T2 [10] were 23.3% and 13.2%, respectively. In addition, the IC50 in the test on G55T2 [1] came to 0.37 µM; in the test with NB1 it was 0.67 µM; in the test with SK-N-AS it was 0.22 µM; in the test with CHP-134 it was 0.38 µM; in test [2] it was 0.0311 µM; in the test on IMR-32 it was 0.21 µM. Further, at Histone deacetylase 1, the IC50 was 0.043 µM.

Regarding `O=C(CCCCCCC(=O)Nc1ccccc1)NO` [VORINOSTAT], the Activity in the test on G55T2 [5] was determined as 8.1%; in the test on G55T2 [7] it was 31.3%; in the test on G55T2 [8], 28.9%; with G55T2 [9] it was 24.8%.

With `Cc1ccc(C(=O)N(CCC(=O)NCc2ccccc2)Cc2ccc(C(=O)NO)cc2)cc1`, the IC50 was determined as 0.69 µM with G55T2 [1]; 1.61 µM in the test with NB1; 0.91 µM with SK-N-AS; 1.1 µM in the test with CHP-134; 0.0167 µM in test [2]; 0.63 µM with IMR-32. The IC50 at Histone deacetylase 1 was 0.0161 µM.
